Reference: patent US20080219977A1, “Combinations Comprising Gemcitabine and Tyrosine Kinase Inhibitors for the Treatment of Pancreatic Cancer” (priority 2005, published 2008)
Marks after values point to notes of the source that are not given here.

Assays:
[1] = molecular target: T1, VEGFR (Mus musculus, UniProt P35918); experiment: Double immunofluorescence CD31/pVEGFR on tumor-associated endothelial cells; format: in vivo, nude mice; conditions: double immunofluorescence with CD31
T1 construct: Frozen sections of pancreatic tumors are mounted on slides and fixed; from tissue; host or cells: tumour-associated endothelial cells in L3.6pl tumours of nude mice
T1 sequence (P35918 20-1345): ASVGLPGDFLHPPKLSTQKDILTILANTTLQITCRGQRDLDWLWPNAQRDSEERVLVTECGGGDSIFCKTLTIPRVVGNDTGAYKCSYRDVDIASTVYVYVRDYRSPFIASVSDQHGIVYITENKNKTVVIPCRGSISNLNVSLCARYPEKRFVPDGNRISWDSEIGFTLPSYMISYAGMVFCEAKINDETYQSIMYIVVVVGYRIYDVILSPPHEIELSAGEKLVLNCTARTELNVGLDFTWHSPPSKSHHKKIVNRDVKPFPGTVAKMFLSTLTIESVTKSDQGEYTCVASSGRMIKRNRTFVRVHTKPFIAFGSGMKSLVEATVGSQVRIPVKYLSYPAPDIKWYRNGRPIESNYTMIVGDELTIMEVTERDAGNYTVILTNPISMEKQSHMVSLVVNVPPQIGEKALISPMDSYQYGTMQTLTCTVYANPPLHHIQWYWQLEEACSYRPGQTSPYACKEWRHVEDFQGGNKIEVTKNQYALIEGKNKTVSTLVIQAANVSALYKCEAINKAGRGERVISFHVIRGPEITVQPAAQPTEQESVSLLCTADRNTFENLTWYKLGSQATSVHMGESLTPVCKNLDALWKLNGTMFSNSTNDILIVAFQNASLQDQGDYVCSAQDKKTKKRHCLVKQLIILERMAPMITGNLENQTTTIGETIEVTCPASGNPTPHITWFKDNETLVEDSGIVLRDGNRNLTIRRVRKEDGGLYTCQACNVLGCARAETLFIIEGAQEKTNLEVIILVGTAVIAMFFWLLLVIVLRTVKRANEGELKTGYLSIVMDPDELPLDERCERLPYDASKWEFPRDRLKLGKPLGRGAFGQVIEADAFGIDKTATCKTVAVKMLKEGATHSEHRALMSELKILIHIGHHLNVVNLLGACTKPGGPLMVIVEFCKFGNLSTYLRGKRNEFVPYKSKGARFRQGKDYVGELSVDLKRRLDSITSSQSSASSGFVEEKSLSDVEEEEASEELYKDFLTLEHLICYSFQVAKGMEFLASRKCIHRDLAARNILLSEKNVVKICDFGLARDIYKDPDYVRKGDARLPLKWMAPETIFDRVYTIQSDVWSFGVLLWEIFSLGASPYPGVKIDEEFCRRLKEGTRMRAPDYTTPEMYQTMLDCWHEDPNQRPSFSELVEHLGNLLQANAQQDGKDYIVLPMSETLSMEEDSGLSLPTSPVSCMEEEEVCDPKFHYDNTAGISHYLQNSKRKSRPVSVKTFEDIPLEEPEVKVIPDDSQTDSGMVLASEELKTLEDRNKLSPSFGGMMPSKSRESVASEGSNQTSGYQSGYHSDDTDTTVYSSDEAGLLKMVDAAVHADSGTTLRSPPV

[2] = Body weight of nude mice in the L3.6pl therapy study; format: in vivo; conditions: nude mice with orthotopic L3.6pl tumors; AEE788 50 mg/kg oral 3x/week, STI571 50 mg/kg oral daily, gemcitabine 50 mg/kg i.p. twice weekly; 4 weeks, killed day 49; n=10
Protocol: Treatment of Established Human Pancreatic Carcinoma Tumors Growing in the Pancreas of Athymic Nude Mice. Twenty-one days after the intra-pancreatic injection of 0.5×10^6 viable L3.6pl cells in 50 μl HBSS, the pancreatic tumors reach the size of 5-6-mm. […] All mice are treated for 4 weeks and killed on day 49 of the experiment.
Necropsy Procedures and Histological Studies. In the first treatment study, the mice are killed on day 49 after tumor cell injection, weighted, and necropsied. Tumors growing in the pancreas are excised and weighed. For immunohistochemical staining procedures, one part of the tumor tissue is fixed in formalin and embedded in paraffin and the other is embedded in OCT compound (Miles, Inc., Elkhart, Ind.), rapidly frozen in liquid nitrogen, and stored at −70° C.
Statistical Analysis. Body weight, tumor weight, PCNA-positive cells, mean vessel density (CD31/PECAM-1), and TUNEL-positive cells are compared using the Mann-Whitney U test. Survival analysis is computed by the Kaplan-Meier method and compared by the Log rank test.

[3] = molecular target: T2, EGFR (Mus musculus, UniProt Q01279); experiment: Double immunofluorescence CD31/pEGFR on tumor-associated endothelial cells; format: in vivo, nude mice; conditions: double immunofluorescence with CD31
T2 construct: Frozen sections of pancreatic tumors are mounted on slides and fixed; from tissue; host or cells: tumour-associated endothelial cells in L3.6pl tumours of nude mice
T2 sequence (Q01279 25-1210): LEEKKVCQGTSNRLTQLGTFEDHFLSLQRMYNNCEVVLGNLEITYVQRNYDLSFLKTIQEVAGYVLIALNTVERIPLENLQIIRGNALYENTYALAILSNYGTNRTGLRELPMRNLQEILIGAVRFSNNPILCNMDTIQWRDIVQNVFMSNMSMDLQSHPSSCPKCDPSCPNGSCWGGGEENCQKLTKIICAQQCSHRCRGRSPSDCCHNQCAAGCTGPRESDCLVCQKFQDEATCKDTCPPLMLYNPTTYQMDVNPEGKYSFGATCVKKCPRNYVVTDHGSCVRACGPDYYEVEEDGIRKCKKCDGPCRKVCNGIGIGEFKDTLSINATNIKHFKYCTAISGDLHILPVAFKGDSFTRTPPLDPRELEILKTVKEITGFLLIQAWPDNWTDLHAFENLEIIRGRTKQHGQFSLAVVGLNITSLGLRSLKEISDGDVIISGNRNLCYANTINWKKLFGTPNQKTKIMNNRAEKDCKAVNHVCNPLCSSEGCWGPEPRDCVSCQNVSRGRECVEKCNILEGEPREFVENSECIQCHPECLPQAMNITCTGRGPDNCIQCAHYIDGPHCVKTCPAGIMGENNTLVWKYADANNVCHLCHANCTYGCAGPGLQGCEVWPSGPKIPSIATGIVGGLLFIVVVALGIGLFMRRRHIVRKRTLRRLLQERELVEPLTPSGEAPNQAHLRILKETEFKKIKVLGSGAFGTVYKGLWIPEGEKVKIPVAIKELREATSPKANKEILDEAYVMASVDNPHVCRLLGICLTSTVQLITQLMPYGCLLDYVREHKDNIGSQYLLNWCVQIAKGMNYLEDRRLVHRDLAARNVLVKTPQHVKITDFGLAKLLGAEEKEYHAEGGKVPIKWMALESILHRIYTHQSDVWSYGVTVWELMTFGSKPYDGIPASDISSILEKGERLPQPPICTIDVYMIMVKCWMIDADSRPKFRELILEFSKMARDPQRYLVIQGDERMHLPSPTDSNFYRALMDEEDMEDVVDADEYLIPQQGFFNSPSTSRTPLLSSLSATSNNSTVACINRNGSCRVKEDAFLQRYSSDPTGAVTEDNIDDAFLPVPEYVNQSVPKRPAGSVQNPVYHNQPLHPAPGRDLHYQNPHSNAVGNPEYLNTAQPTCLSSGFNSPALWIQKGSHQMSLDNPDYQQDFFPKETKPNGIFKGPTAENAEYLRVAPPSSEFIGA

[4] = system: VEGFR; experiment: IHC analysis of phosphorylated VEGFR in L3.6pl pancreatic tumors; format: in vivo, human; conditions: IHC of pancreatic tumors from treated mice
Description: (§1) Immunohistochemical (IHC) Analysis to Detect EGF, VEGF, PDGF-BB, EGFR, VEGFR, PDGFRβ, pEGFR, pVEGFR, pPDGF-R in Pancreatic Tumors. Paraffin-embedded pancreatic tumors of mice from all treatment groups are immunostained to evaluate the expression of EGF, VEGF, PDGF-BB, EGFR, VEGFR, PDGFRβ, phosphorylated (p)EGFR, pVEGFR, and pPDGFRβ. The sections are deparaffinized in xylene, dehydrated with alcohol and rehydrated in PBS. Endogenous peroxidase is blocked with 3% hydrogen peroxide in PBS. Samples are exposed to protein block (5% normal horse serum, 1% normal goat serum in PBS) and incubated overnight at 4° C. with each primary antibody at the appropriate dilution. […] Slides are counterstained with Gill's #3 hematoxylin. Sections stained for immunoperoxidase or hematoxylin and eosin are examined in a microscope equipped with a three-chip-charged coupled device (CCD) color video camera. Digital images are captured using Optimas Image Analysis software (Media Cybernetics, Md.).

[5] = molecular target: T3, EGFR (Homo sapiens, UniProt P00533); experiment: IHC analysis of phosphorylated EGFR in L3.6pl pancreatic tumors; format: in vivo; conditions: IHC of pancreatic tumors from treated mice
T3 construct: Paraffin-embedded pancreatic tumors of mice from all treatment groups are immunostained; from tissue; host or cells: L3.6pl orthotopic pancreatic tumours grown in nude mice
T3 sequence (P00533 25-1210): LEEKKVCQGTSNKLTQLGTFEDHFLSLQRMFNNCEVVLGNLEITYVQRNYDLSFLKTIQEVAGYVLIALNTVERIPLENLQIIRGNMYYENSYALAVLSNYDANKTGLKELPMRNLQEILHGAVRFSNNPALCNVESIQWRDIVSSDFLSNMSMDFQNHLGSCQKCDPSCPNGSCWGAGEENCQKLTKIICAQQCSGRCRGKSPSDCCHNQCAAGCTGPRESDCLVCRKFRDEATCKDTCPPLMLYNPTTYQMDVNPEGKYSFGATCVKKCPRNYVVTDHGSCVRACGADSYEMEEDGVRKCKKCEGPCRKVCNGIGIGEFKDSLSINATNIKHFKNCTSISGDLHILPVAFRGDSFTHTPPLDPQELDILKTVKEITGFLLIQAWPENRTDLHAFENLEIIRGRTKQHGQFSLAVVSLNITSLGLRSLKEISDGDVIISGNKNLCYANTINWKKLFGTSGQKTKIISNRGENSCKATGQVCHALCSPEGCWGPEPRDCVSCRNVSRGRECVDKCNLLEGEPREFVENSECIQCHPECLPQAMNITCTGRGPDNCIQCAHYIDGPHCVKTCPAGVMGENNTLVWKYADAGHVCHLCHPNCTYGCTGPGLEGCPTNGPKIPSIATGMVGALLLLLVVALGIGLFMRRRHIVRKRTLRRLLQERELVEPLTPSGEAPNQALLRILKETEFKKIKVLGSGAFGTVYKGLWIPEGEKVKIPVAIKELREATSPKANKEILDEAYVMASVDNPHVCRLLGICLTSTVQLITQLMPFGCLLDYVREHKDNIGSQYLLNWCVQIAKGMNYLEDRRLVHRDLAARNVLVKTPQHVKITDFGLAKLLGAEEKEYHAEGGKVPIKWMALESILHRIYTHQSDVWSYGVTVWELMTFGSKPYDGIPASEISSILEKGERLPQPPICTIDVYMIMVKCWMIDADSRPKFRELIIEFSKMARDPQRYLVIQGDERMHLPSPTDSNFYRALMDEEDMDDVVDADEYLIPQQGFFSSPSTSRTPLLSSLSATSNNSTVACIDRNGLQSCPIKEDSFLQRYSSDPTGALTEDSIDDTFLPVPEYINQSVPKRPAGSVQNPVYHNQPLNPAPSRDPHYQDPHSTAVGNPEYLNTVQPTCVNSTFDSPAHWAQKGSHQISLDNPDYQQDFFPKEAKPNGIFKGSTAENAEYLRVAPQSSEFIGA
Description: as §1

[6] = system: tumor-associated endothelial cells; experiment: CD31/TUNEL fluorescent double labeling, apoptosis of tumor-associated endothelial cells; format: in vivo, nude mice; conditions: Median ± S.D.; ratio of apoptotic endothelial cells to total endothelial cells
Protocol: Double Immunofluorescence Staining for CD31/PECAM-1 and EGFR, pEGFR, VEGFR, pVEGFR, PDGFRβ, pPDGFRβ, Pericytes (desmin-positive cells), and TUNEL. Frozen sections of pancreatic tumors are mounted on slides and fixed. Immunofluorescence for CD31 is performed using Alexa594 conjugated secondary antibody, and samples are again blocked briefly in a blocking solution (5% normal horse serum and 1% normal goat serum in PBS) as described above and incubated with antibody against human EGFR, pEGFR, VEGFR, pVEGFR, PDGFRβ, pPDGFRβ, or desmin at 4° C. overnight. After washes and blocking with blocking solution, samples are incubated with Alexa488 conjugated secondary antibody. Endothelial cells are identified by red fluorescence, and EGF-R, pEGFR, VEGFR, pVEGFR, PDGFRβ, pPDGFRβ and desmin positive cells (pericytes) are identified by green fluorescence. The presence of growth factor receptors and phosphorylated receptors on endothelial cells are detected by colocalization of red and green fluorescence, which appeared yellow. TUNEL-positive apoptotic cells are detected by localized green fluorescence within cell nuclei, and endothelial cells are identified by red fluorescence. Apoptotic endothelial cells are identified by yellow fluorescence within the nuclei.

[7] = listed as {6-[4-(4-ethyl-piperazin-1-ylmethyl)-phenyl]-7H-pyrrolo[2,3-d]pyrimidin-4-yl}-(1)

Row | SMILES | phosphorylation of VEGFR on tumor-associated endothelial cells [1] | Body weight(g) Median [2] [g] | phosphorylation of EGFR on tumor-associated endothelial cells [3] | phosphorylation of VEGFR in tumors [4] | phosphorylation of VEGFR in tumors [4, 7] | phosphorylation of EGFR in tumors [5] | phosphorylation of EGFR in tumors [5, 7] | Endothelial cells TUNEL+ (%) [6]
1 | CCN1CCN(Cc2ccc(-c3cc4c(N[C@H](C)c5ccccc5)ncnc4[nH]3)cc2)CC1 [AEE788] | diminished | 26.2 | diminished | significantly reduced | decreases phosphorylation | significantly reduced | decreases phosphorylation | 3 ± 3^e %
2 | Nc1ccn([C@@H]2O[C@H](CO)[C@@H](O)C2(F)F)c(=O)n1 [Gemcitabine] |  | 25.7 |  |  |  |  |  | 1 ± 1%
